Experimental data taken from PMC6384730, “Systematic Identification of Thiosemicarbazides for Inhibition of Toxoplasma gondii Growth In Vitro” (Molecules, 2019).
≈ marks a conversion by molar mass, not a printed value. Where “and” joins values, the source holds several entries; their conditions need not be identical. Equal values may be shown once. Read-outs that look alike come from different tables or passages of the source.

Tests used:
[1] = tested on: T. gondii RH tachyzoites; assay: Influence on T. gondii proliferation ([3H]uracil incorporation) in infected Vero cells; assay type: cell-based, Toxoplasma gondii; settings: for IC50: Toxoplasma gondii, Vero
Procedure: Vero cell line (African green monkey kidney) (ATCC® CCL-81™) were maintained in EMEM (EMEM/10%HIFBS/P/S) (Eagle’s Minimum Essential Medium—ATCC® 30-2003™) culture medium supplemented with 10% HIFBS (Heat-Inactivated (1 h in 56°C) Fetal Bovine Serum—ATCC), 100 U/mL penicillin, 100 μg/mL streptomycin. The cell line was trypsinized (using Trypsin-EDTA Solution, 1X ATCC® 30-2101™) twice a week, and seeded at density 1 × 10^6 per T25 cell culture flask (Falcon), and incubated for 24–48 h at 37 °C and 5 CO2 to achieve a confluent monolayer. The highly virulent RH strain of Toxoplasma gondii, haplogroup I (ATCC® PRA-310™) were maintained as tachyzoites according to the ATCC product sheet, in DMEM (Dulbecco’s Modified Eagle’s Medium—ATCC® 30-2002™) (DMEM/3%HIFBS/P/S—parasite culture medium) under condition 37 °C and 5 CO2 and passage twice per week.
The Vero cells were seeded on 96-well plates (1 × 10^5 cells/100 µL/well) in EMEM/10%HIFBS/P/S. After 24 h of incubation medium was removed and then T. gondii RH tachyzoites were added to the cell monolayers at density 1 × 10^5 cells/100 µL/well in DMEM/3%HIFBS/P/S. One hour later different compounds and sulfadiazine dilutions (100 µL/well) in parasite culture medium were added to the cell monolayers with T. gondii. After subsequent 24 h of incubation 1 µCi/well [5,6-^3H] uracil (Moravek Biochemicals Inc., Brea, CA, USA) was applied to each microculture for further 72 h. The amount of the isotope incorporated into the parasite nucleic acid pool, corresponding to the parasite growth, was measured by liquid scintillation counting using 1450 Microbeta Plus Liquid Scintillation Counter (Wallac Oy, Turku, Finland). The results were expressed as counts per minute (CPM) and transformed to the percentage of viability compared to untreated cells. All experiments were performed in triplicate.

[2] = MTT cell viability (cytotoxicity) assay on L929 cells; assay type: cell-based, mouse; settings: mouse, 24 h, % of untreated cells; for viability at 24 h, 62.5 µg/mL: 62.50 µg/mL
Procedure: (§1) Cells were trypsinized twice a week, and seeded at density 1 × 10^6 per T25 cell culture flask, and incubated for 24-48 h at 37 °C and 10% CO2 to achieve a confluent monolayer. […] The final concentration of DMSO in compounds dilutions was not higher than 1.00%. […] Dilution of the all compounds 2-22 and drug were freshly prepared before the cells were exposed. […] The MTT assay was used according to international standards: ISO 10993-5:2009(E), Biological evaluation of medical devices, Part 5: Tests for in vitro cytotoxicity. […] Afterward, the culture medium in the plates was replaced by 100 μL of compounds and sulfadiazine suspension and the cells were exposed for 24 h. Then, 1 mg/mL of MTT solution in RPMI 1640 without phenol red was prepared and 50 μL of the solution was added to each well and incubated at 37 °C, 10% CO2 for 2 h. Mitochondrial dehydrogenases of viable cells reduced the yellowish water-soluble MTT to water-insoluble formazan crystals, which were solubilized with dimethyl sulfoxide (DMSO). The cell culture medium was aspirated cautiously, after which 150 μL DMSO was added to each well, the plates were gently mixed, then 25 μL 0.1 M glycine buffer (pH = 10.5) (Sigma) was added. Optical density was read on the ELISA reader (Multiskan EX, Labsystems, Vienna, VA, USA) at 570 nm. The results were expressed as the percentage of viability compared to untreated cells. All experiments were performed in triplicate. Moreover, cells were treated with 4.0-0.03% concentration of DMSO as a compounds solvent (data not shown).

[3] = tested on: L929 cells; assay: as above; assay type: cell-based, mouse; settings: L929 cells, 24 h exposure
Procedure: as §1

[4] = RH tachyzoites in Vero cells, [3H]uracil incorporation, highest concentration tested 125 µg/mL, read-out: IC50 (50% inhibition of T. gondii proliferation in vitro)

| SMILES | IC50 [1, 4] [µg/mL] | viability at 24 h, 3.91 µg/mL ([2]; L929 mouse fibroblast cells) [%] | viability at 24 h, 7.81 µg/mL ([2]; L929 mouse fibroblast cells) [%] | viability at 24 h, 15.63 µg/mL ([2]; L929 mouse fibroblast cells) [%] | viability at 24 h, 31.25 µg/mL ([2]; L929 mouse fibroblast cells) [%] | viability at 24 h, 62.5 µg/mL ([2]; L929 mouse fibroblast cells) [%] | viability at 24 h, 125 µg/mL ([2]; L929 mouse fibroblast cells) [%] | viability at 24 h, 250 µg/mL ([2]; L929 mouse fibroblast cells) [%] | viability at 24 h, 500 µg/mL ([2]; L929 mouse fibroblast cells) [%] | CC30 (concentration required for 30% cells proliferation inhibition) [3] | melting point [°C] | also measured |
| --- | --- | --- | --- | --- | --- | --- | --- | --- | --- | --- | --- | --- |
| Cc1nc[nH]c1C(=O)NNC(=S)Nc1c(C(C)C)cccc1C(C)C [Compound 22, 4-(2,6-Diisopropylphenyl)-1-(4-methylimidazol-5-oyl)thiosemicarbazide] | 97.7 (≈ 272 µM) | 116 | 110 | 101 | 80.7 | 79.8 | 76.6 | 68.2 | 58.8 | 190.55 µg/mL | 202 to 204 | – |
| CCN(CC)c1ccc(NC(=S)NNC(=O)c2[nH]cnc2C)cc1 [Compound 20, 1-(4-Methylimidazol-5-oyl)-4-(4-diethyloaminophenyl)thiosemicarbazide] | 25.7 (≈ 74.2 µM) | 102 | 93.6 | 85.7 | 71.3 | 67.9 | 66 | 53.4 | 12.9 | 63.10 µg/mL | 225 to 227 | – |
| Cc1nc[nH]c1C(=O)NNC(=S)Nc1ccc([N+](=O)[O-])cc1 [Compound 4, 1-(4-Methylimidazol-5-oyl)-4-(4-nitrophenyl)thiosemicarbazide] | 21.6 (≈ 67.5 µM) | 98.5 | 95.7 | 95.1 | 93.1 | 88.9 | 79.6 | 66.9 | 23.2 | 238.78 µg/mL | 235 to 237 | fold more potent than sulfadiazine ([1]; T. gondii proliferation, IC50 ratio): 184 fold |
| Cc1nc[nH]c1C(=O)NNC(=S)Nc1cccc([N+](=O)[O-])c1 [Compound 3, 1-(4-Methylimidazol-5-oyl)-4-(3-nitrophenyl)thiosemicarbazide] | 14.8 (≈ 46.1 µM) | 95.4 | 94.6 | 94.6 | 89.4 | 79 | 72.4 | 55.8 | 15.3 | 141.25 µg/mL | – | – |
| COc1ccc(NC(=S)NNC(=O)c2nc[nH]c2C)cc1 [Compound 7] | 114 (≈ 373 µM) | 95.1 | 90.3 | 89.5 | 87.7 | 85.8 | 84 | 70.7 | 68.6 | 389.05 µg/mL | – | – |
| Cc1nc[nH]c1C(=O)NNC(=S)NCCCl [Compound 9] | – | – | – | – | – | – | – | – | – | >500.00 µg/mL and >500 µg/mL | 175 to 177 | IC50 ([1]; read-out: IC50 (50% inhibition of T. gondii proliferation in vitro)): > 125 µg/mL; viability at 24 h, 3.91 µg/mL [2]: 100%; viability at 24 h, 7.81 µg/mL [2]: 98.3%; viability at 24 h, 15.63 µg/mL [2]: 97.1%; viability at 24 h, 31.25 µg/mL [2]: 96%; viability at 24 h, 62.5 µg/mL [2]: 95.6%; viability at 24 h, 125 µg/mL [2]: 94.4%; viability at 24 h, 250 µg/mL [2]: 92.8%; viability at 24 h, 500 µg/mL [2]: 87.4% |
| COc1cccc(NC(=S)NNC(=O)c2[nH]cnc2C)c1 [Compound 6, 4-(3-Methoxyphenyl)-1-(4-methylimidazol-5-oyl)thiosemicarbazide] | 79.7 (≈ 261 µM) | 92.8 | 88.6 | 86.2 | 83.3 | 79.7 | 68.8 | 67.3 | 56.8 | 165.96 µg/mL | 196 to 198 | – |
| Cc1nc[nH]c1C(=O)NNC(=S)Nc1cc(F)ccc1F [Compound 15, 4-(2,5-Difluorophenyl)-1-(4-methylimidazol-5-oyl)thiosemicarbazide] | 53.1 (≈ 170 µM) | 105 | 102 | 101 | 96.2 | 84.3 | 74.8 | 65.2 | 51.2 | 158.49 µg/mL | – | IC50 (50% inhibition of T. gondii proliferation in vitro) ([1]; RH tachyzoites in Vero cells, [3H]uracil incorporation, highest concentration tested 125 µg/mL): 53.70 µg/mL |
| CC(=O)c1cccc(NC(=S)NNC(=O)c2[nH]cnc2C)c1 [Compound 12, 4-(3-Acetylphenyl)-1-(4-methylimidazol-5-oyl)thiosemicarbazide] | 95.5 (≈ 301 µM) | 106 | 104 | 103 | 101 | 99.3 | 96.7 | 76.8 | 56.2 | 206.54 µg/mL | – | – |
| Cc1ccc(NC(=S)NNC(=O)c2[nH]cnc2C)cc1 [Compound 18] | ~57.6 (≈ 199 µM) | 99.1 | 91.7 | 82 | 69 | 64.6 | 63.7 | 60.4 | 53 | 34.67 µg/mL | – | – |
| Cc1nc[nH]c1C(=O)NNC(=S)NCc1ccccc1 [Compound 8, 4-Benzyl-1-(4-methylimidazol-5-oyl)thiosemicarbazide] | – | 101 | 99.4 | 96.5 | 92 | 88.8 | 64.9 | 53.3 | 46.6 | 123.03 µg/mL | – | IC50 ([1]; IC50 greater than 125 µg/mL (highest concentration tested), calculated by extrapolation of the curves (GraphPad Prism), read-out: IC50 (50% inhibition of T. gondii proliferation in vitro), extrapolated): ~150 µg/mL (≈ 517 µM) |
| CCOc1ccc(NC(=S)NNC(=O)c2[nH]cnc2C)cc1 [Compound 21, 4-(4-Ethoxyphenyl)-1-(4-methylimidazol-5-oyl)thiosemicarbazide] | 95.3 (≈ 298 µM) | 115 | 114 | 112 | 106 | 101 | 84.3 | 82.3 | 72 | 500.00 µg/mL and 500 µg/mL | – | – |
| COc1ccccc1NC(=S)NNC(=O)c1[nH]cnc1C [Compound 5, 4-(2-Methoxyphenyl)-1-(4-methylimidazol-5-oyl)thiosemicarbazide] | 33.1 (≈ 108 µM) | 95.8 | 91.9 | 89 | 86.5 | 78.5 | 69.7 | 63.1 | 53.6 | 138.04 µg/mL | – | – |
